Test results as given in patent publication US9783488B2 (CHDI Foundation, Inc., priority 2013, dated 2017).

How the values were obtained:
[1] = target: human catalytic domain HDAC4 protein (amino acids 648-1032) (Homo sapiens (Human), UniProt P56524); experiment: Inhibition of HDAC4 catalytic domain enzymatic activity, fluorogenic substrate Boc-Lys(Tfa)-AMC; settings: HDAC4 catalytic domain enzyme, read-out: Biochemical HDAC4 IC50
Excerpt: Analysis of Inhibition of HDAC4 with Class IIa Histone Deacetylase (HDAC) Inhibitors
The potency of Class IIa Histone Deacetylase (HDAC) inhibitors is quantified by measuring the Histone Deacetylase 4 (HDAC4) catalytic domain enzymatic activity using the fluorogenic substrate, Boc-Lys(Tfa)-AMC. The substrate is deacetylated to Boc-Lys-AMC by HDAC4. Cleavage by trypsin results in the release of the fluorophore AMC from the deacetylated substrate. The fluorescence of the sample is directly related to the histone deacetylase activity in the sample.
Serially dilute HDAC inhibitor compounds. […] Stocks of 6 μl aliquots of the 10 mM compound in DMSO are prepared and stored at […]. From one stock aliquot of each compound to be tested and the reference compound, a 16-point serial dilution is prepared according to Table 1 using a 125 μl 16-channel Matrix multi-channel pipette (Matrix Technologies Ltd).
2 μl (200×) of each diluted solution and each control (full activity: 100% DMSO alone or full inhibition 1 mM) is stamped into V-bottomed polypropylene 384-well compound plates using either the Bravo (384-well head from Agilent) or 12.5 μl 16-channel Matrix multi-channel pipette (Matrix Technologies Ltd).
Prepare HDAC4 catalytic domain enzyme (0.2 μg/mL).
Prepare 5× ([…]) Boc-Lys(Tfa)-AMC Substrate. 5× (50 μM) substrate is prepared just prior to the addition to the assay. A 1 mM substrate stock is made by diluting a 100 mM Boc-Lys(Tfa)-AMC in DMSO solution 1:100 by adding it drop-wise to assay buffer (equilibrated to r.t.) while vortexing at slow speed to prevent precipitation. The 5× substrate is prepared by diluting the 1 mM substrate solution 1:20 by adding it drop-wise to assay buffer (equilibrated to r.t.) while vortexing at slow speed to prevent precipitation.
Prepare 3× (30 μM) Developer/Stop Solution.
Assay. 5 μl of each solution of 1:20 diluted compound from above is transferred to a clear bottomed, black, 384-well assay plate using the Bravo or the Janus (384-well MDT head from Perkin Elmer). Using a 16-channel Matrix multi-channel pipette, 35 μl of the working solution of HDAC4 catalytic domain enzyme (0.2 μg/mL in assay buffer) is transferred to the assay plate. […] The assay plate is then shaken for two minutes on an orbital shaker at 900 rpm (rotations per minute). Next the plate is incubated for 15 minutes at 37° C. The reaction is stopped by adding 25 μl of 3× (3 μM) developer/stop solution to the assay plates using either the Bravo, Janus or a 16-channel Matrix multi-channel pipette. Assay plates are then shaken for 5 minutes on an orbital shaker at 1200 rpm. Next, the assay plates are incubated at 37° C. for 1 hour in a tissue culture incubator.

[2] = test system: cellular histone deacetylase enzymatic activity in Jurkat E6-1 cells; experiment: Inhibition of cellular HDAC activity in Jurkat E6-1 cells, fluorogenic substrate Boc-Lys(Tfa)-AMC; type: cell-based; settings: Homo sapiens, read-out: Cell IC50
Excerpt: Analysis of Inhibition of Cellular HDAC Activity with Class IIa Histone Deacetylase (HDAC) Inhibitors
The potency of Class IIa Histone Deacetylase (HDAC) inhibitors is quantified by measuring the cellular histone deacetylase enzymatic activity using the fluorogenic substrate, Boc-Lys(Tfa)-AMC. After penetration in Jurkat E6-1 cells, the substrate is deacetylated to Boc-Lys-AMC. After cell lysis and cleavage by trypsin, the fluorophore AMC is released from the deacetylated substrate only. The fluorescence of the sample is directly related to the histone deacetylase activity in the sample.
Jurkat E6.1 cell culture and plating. Jurkat E6.1 cells are cultured according to standard cell culture protocols in Jurkat E6.1 Growth Media (RPMI without phenol red, 10% FBS, 1 mM HEPES, and 1 mM Sodium Pyruvate). Jurkat E6.1 cells are counted using a Coulter Counter and resuspended in Jurkat E6.1 growth media at a concentration of 75,000 cells/35 μl. 35 μl or 75,000 cells is seeded into Greiner microtitre assay plates. The plates are then incubated at 37° C. and 5% CO2 while other assay components are being prepared.
Serially dilute HDAC inhibitor compounds. Serial dilutions of the HDAC inhibitors and control reference compound (1-(5-(3-((4-(1,3,4-oxadiazol-2-yl)phenoxy)methyl)-1,2,4-oxadiazol-5-yl)thiophen-2-yl)-2,2,2-trifluoroethanone) are made by first resuspending the lyophilized compound to a final concentration of 10 mM in […]. Stocks of 70 μl aliquots of the 10 mM compound in DMSO are prepared and stored at −20° C. From one stock aliquot of each compound to be tested and the reference compound, a 16-point serial dilution is prepared according to Table 1 using a 125 μl 16-channel Matrix multi-channel pipette.
2 μl (200×) of each diluted solution and each control (full activity: 100% DMSO alone or full inhibition 1 mM) is stamped into V-bottom polypropylene 384-well compound plates using either the Bravo, Janus, or 12.5 μl 16-channel Matrix multi-channel pipette. Each well with the 200× compound solution is diluted 1:20 by the addition of 38 μl Jurkat assay buffer+DMSO (9.5% DMSO, RPMI without phenol red, 0.09% FBS, 9 mM Hepes, and 0.9 mM Sodium Pyruvate equilibrated to r.t.)
Prepare 5× (500 μM) Boc-Lys(Tfa)-AMC substrate. 5× (500 μM) substrate is prepared just prior to the addition to the assay. The 5× substrate is prepared by diluting a 100 mM Boc-Lys(Tfa)-AMC in DMSO solution 1:200 by adding it drop-wise to Jurkat assay medium (RPMI without phenol red, 0.1% FBS, 10 mM Hepes, and 1 mM Sodium Pyruvate equilibrated to 37° C.) while vortexing at slow speed to prevent precipitation.
Prepare 3× Lysis Buffer. 10 mL of 3× lysis buffer is prepared with 8.8 mL of 3× stock lysis buffer (50 mM Tris-HCl, pH 8.0, 137 mM NaCl, 2.7 mM KCl, 1 mM MgCl2, 1% Nonidet P40 Substitute equilibrated to r.t.) and 1.2 mL of 3 mg/mL Trypsin equilibrated to r.t.
Assay. 5 μl of each solution of 1:20 diluted compound from above is transferred to the Greiner microtitre assay plates with 75,000 cells/well using the Bravo. Cells are then incubated for 2 hours at 37° C. and 5% CO2. The assay is then started by adding 10 μl of 5× (500 μM) substrate to the assay plate using either the Bravo or 16-channel Matrix multi-channel pipette. The cells are then incubated for 3 hours at 37° C. and 5% CO2. Next, 25 μl of 3× lysis buffer is added to each well using either the 125 μl 16 channel pipette or the Bravo. The assay plate is then incubated overnight (15-16 hours) at 37° C. and 5% CO2. The following day, the plates are shaken on an orbital shaker for 1 minute at 900 rpm. Finally the top read fluorescence (Excitation: 355 nm, Emission: 460 nm) is measured using PerkinElmer EnVision.

human catalytic domain HDAC4 protein (amino acids 648-1032), sequence (P56524 648-1032): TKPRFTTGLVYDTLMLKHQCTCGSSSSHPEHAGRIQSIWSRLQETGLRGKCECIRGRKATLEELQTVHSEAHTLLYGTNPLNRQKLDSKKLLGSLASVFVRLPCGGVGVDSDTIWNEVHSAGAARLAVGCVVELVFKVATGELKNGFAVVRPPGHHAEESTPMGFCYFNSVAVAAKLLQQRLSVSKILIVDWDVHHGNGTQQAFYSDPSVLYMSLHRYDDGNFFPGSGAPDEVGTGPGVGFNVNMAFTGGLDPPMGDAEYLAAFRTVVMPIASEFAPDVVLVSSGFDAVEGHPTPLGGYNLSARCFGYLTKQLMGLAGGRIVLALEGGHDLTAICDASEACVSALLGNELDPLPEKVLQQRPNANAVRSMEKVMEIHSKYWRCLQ

SMILES	IC50 [1] [µM]	IC50 [2] [µM]
Cc1c(F)cccc1[C@]1(C(=O)NO)CC[C@@H](c2ccc3c(cnn3C)c2)C1 (relative stereo) [Example 63, (1S,3R*)-1-(3-fluoro-2-methylphenyl)-N-hydroxy-3-(1-methyl-1H-indazol-5-yl)cyclopentanecarboxamide]	0.11	0.14
Cc1c(F)cccc1[C@]1(C(=O)NO)CC[C@H](c2ccc3c(cnn3C)c2)C1 (relative stereo) [Example 64, (1S,3S*)-1-(3-fluoro-2-methylphenyl)-N-hydroxy-3-(1-methyl-1H-indazol-5-yl)cyclopentanecarboxamide]	0.1	0.22
Cc1c(F)cccc1[C@]1(C(=O)NO)CC[C@@H](c2ccc3cn(C(F)F)nc3c2)C1 (relative stereo) [Example 65, (1S,3R*)-3-(2-(difluoromethyl)-2H-indazol-6-yl)-1-(3-fluoro-2-methylphenyl)-N-hydroxycyclopentanecarboxamide]	0.11	0.099
Cc1c(F)cccc1[C@]1(C(=O)NO)CC[C@H](c2ccc3cn(C(F)F)nc3c2)C1 (relative stereo) [Example 66, (1S,3S*)-3-(2-(difluoromethyl)-2H-indazol-6-yl)-1-(3-fluoro-2-methylphenyl)-N-hydroxycyclopentanecarboxamide]	0.22	0.19
Cc1c(F)cccc1[C@]1(C(=O)NO)CC[C@@H](c2ccc3c(F)nn(C)c3c2)C1 (relative stereo) [Example 67, (1S,3R*)-3-(3-fluoro-1-methyl-1H-indazol-6-yl)-1-(3-fluoro-2-methylphenyl)-N-hydroxycyclopentanecarboxamide]	0.4	0.36
Cc1c(F)cccc1[C@]1(C(=O)NO)CC[C@H](c2ccc3c(F)nn(C)c3c2)C1 (relative stereo) [Example 68, (1S,3S*)-3-(3-fluoro-1-methyl-1H-indazol-6-yl)-1-(3-fluoro-2-methylphenyl)-N-hydroxycyclopentanecarboxamide]	0.32	0.21
Cc1c(F)cccc1[C@]1(C(=O)NO)CC[C@@H](c2ccc3c(c2)ncn3C)C1 (relative stereo) [Example 69, (1S,3R*)-1-(3-fluoro-2-methylphenyl)-N-hydroxy-3-(1-methyl-1H-benzo[d]imidazol-5-yl)cyclopentanecarboxamide]	0.09	0.2
Cc1c(F)cccc1[C@]1(C(=O)NO)CC[C@@H](c2ccc3ncn(C)c3c2)C1 (relative stereo) [Example 70, (1S,3R*)-1-(3-Fluoro-2-methylphenyl)-N-hydroxy-3-(1-methyl-1H-benzo[d]imidazol-6-yl)cyclopentanecarboxamide]	0.11	0.13
Cc1c(F)cccc1[C@]1(C(=O)NO)CC[C@H](c2ccc3ncn(C)c3c2)C1 (relative stereo) [Example 71, (1S,3S*)-1-(3-Fluoro-2-methylphenyl)-N-hydroxy-3-(1-methyl-1H-benzo[d]imidazol-6-yl)cyclopentanecarboxamide]	0.059	0.11
Cc1c(F)cccc1[C@]1(C(=O)NO)CC[C@@H](c2ccc3c(c2)NCC(C)(C)O3)C1 (relative stereo) [Example 72]	0.3	0.47
Cc1c(F)cccc1[C@]1(C(=O)NO)CC[C@H](c2ccc3c(c2)NCC(C)(C)O3)C1 (relative stereo) [Example 73]	0.27	0.41
Cc1c(F)cccc1[C@]1(C(=O)NO)CC[C@@H](c2ccc3nc(C(F)(F)F)[nH]c3c2)C1 (relative stereo) [Example 74, (1S,3R*)-1-(3-Fluoro-2-methylphenyl)-N-hydroxy-3-(2-(trifluoromethyl)-1H-benzo[d]imidazol-6-yl)cyclopentanecarboxamide]	0.074	0.11
Cc1c(F)cccc1[C@]1(C(=O)NO)CC[C@H](c2nc3ccccc3s2)C1 (relative stereo) [Example 75, (1S,3S*)-3-(Benzo[d]thiazol-2-yl)-1-(3-fluoro-2-methylphenyl)-N-hydroxycyclopentanecarboxamide]	0.08	0.16
Cc1c(F)cccc1[C@]1(C(=O)NO)CC[C@@H](c2nc3ccccc3s2)C1 (relative stereo) [Example 76, (1S,3R*)-3-(Benzo[d]thiazol-2-yl)-1-(3-fluoro-2-methylphenyl)-N-hydroxycyclopentanecarboxamide]	0.16	0.24
Cc1c(F)cccc1[C@]1(C(=O)NO)CC[C@H](c2ccc3nc(C4CC4)sc3c2)C1 (relative stereo) [Example 77, (1 S,3S*)-3-(2-cyclopropylbenzo[d]thiazol-6-yl)-1-(3-fluoro-2-methylphenyl)-N-hydroxycyclopentanecarboxamide]	0.31	0.42
Cc1c(F)cccc1[C@]1(C(=O)NO)CC[C@@H](c2ccc3nc(C4CC4)sc3c2)C1 (relative stereo) [Example 78, (1 S,3R*)-3-(2-cyclopropylbenzo[d]thiazol-6-yl)-1-(3-fluoro-2-methylphenyl)-N-hydroxycyclopentanecarboxamide]	0.34	0.42
Cc1c(F)cccc1[C@]1(C(=O)NO)CC[C@H](c2ccc3cnn(C)c3c2F)C1 (relative stereo) [Example 82, (1S,3S*)-3-(7-Fluoro-1-methyl-1H-indazol-6-yl)-1-(3-fluoro-2-methylphenyl)-N-hydroxycyclopentanecarboxamide]	0.11	0.25
